Patent publication US12227501B2, “3-amino-2-[2-(acylamino)pyridin-4-yl]-1,5,6,7-tetrahydro-4h-pyrrolo[3,2-c]pyridin-4-one as CSNK1 inhibitors” (Bayer Aktiengesellschaft, priority 2019, dated 2025)
Several values for one entry are separate records, joined by “and”; a condition that tells them apart may be missing. Identical values can stand only once. Like-named read-outs stand apart in the source and are kept apart here.

Tests used:
Type in all cases: biochemical
human CSNK1A1 [1] = biological target: T1, human CSNK1A1 (Homo sapiens (Human), UniProt P48729); assay: CSNK1A1 High ATP Assay (ADP-Glo, 1 mM ATP); conditions: read-out: CSNK1A1 high ATP assay IC50 [mol/l] (median)
How it was run: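 Kinase activity taken as ADP generated, quantified by ADP-Glo luminescence after 1 h ATP depletion and 1 h detection at 22 °C. Enzyme is GST–full-length human CSNK1A1 (insect cell-expressed), pre-bound to compound for 15 min, with phosphopeptide substrate and 1 mM ATP.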

[2] = biological target: wild-type Epidermal Growth Factor Receptor (EGFR) (Homo sapiens (Human), UniProt P00533); assay: WT-EGFR Kinase Assay (TR-FRET, 2 mM ATP)
human CSNK1A1 [3] = biological target: T1, human CSNK1A1; assay: CSNK1A1 Assay 2 (ADP-Glo, 1 μM ATP); conditions: substrate biotin-Ahx-KRRRAL-pS-VASLPGL, read-out: CSNK1A1 Assay 2 IC50 [mol/l] (median)
How it was run: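 Full-length human CSNK1A1 as an N-terminal GST fusion (baculovirus/insect cells) with biotinylated peptide substrate biotin-Ahx-KRRRAL-pS-VASLPGL and 1 μM ATP, in HEPES pH 7.5 buffer. Compounds were pre-incubated with enzyme (~0.0375 ng/μL) for 15 min at 22 °C. Generated ADP was read by ADP-Glo luminescence as the activity measure.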

human CSNK1D = human CSNK1D (Homo sapiens (Human), UniProt P48730); assay: CSNK1D Assay (ADP-Glo, 1 μM ATP); conditions: read-out: CSNK1D IC50 [mol/l] (median)
How it was run: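 Activity is read as ADP produced, by ADP-Glo luminescence after 1 h steps at 22 °C. The reaction uses 1 μM ATP, a biotinylated peptide and insect-cell-expressed GST–CSNK1D (about 0.5 ng/μL) in pH 7.5 HEPES buffer, with 15 min compound–enzyme preincubation.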

[4] = EGFR Wildtyp- 2 mM ATP IC50 [mol/l] (median)
[5] = read-out: EGFR Wildtyp- 2 mM ATP IC50 [mol/l] (median)

wild-type Epidermal Growth Factor Receptor (EGFR), sequence (P00533 669-1210): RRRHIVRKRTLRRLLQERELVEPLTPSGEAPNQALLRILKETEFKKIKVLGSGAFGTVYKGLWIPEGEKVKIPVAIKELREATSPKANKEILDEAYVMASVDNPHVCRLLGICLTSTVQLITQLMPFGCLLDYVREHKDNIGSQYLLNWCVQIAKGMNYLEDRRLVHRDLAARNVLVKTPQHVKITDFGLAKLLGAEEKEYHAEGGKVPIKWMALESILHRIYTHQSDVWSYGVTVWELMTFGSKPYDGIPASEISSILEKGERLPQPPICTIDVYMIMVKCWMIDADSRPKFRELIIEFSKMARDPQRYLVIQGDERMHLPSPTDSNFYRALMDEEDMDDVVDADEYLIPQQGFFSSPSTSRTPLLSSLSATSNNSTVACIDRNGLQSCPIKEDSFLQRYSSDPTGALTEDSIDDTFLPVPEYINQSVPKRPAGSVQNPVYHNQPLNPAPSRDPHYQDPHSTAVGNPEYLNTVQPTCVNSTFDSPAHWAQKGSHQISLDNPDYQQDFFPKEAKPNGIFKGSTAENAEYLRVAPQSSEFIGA
human CSNK1D, sequence (P48730 whole entry): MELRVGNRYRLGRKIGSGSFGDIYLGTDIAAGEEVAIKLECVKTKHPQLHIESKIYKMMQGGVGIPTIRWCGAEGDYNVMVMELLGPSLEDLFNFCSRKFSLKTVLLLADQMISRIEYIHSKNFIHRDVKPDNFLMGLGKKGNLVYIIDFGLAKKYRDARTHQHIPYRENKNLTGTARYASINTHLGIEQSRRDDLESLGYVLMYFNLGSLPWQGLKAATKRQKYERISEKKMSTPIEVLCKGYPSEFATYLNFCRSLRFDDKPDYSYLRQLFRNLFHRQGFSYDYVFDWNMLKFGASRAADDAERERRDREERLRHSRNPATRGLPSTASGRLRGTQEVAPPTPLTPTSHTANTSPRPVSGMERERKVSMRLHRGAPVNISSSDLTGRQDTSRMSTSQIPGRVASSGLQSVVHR
T1 sequence (P48729 whole entry): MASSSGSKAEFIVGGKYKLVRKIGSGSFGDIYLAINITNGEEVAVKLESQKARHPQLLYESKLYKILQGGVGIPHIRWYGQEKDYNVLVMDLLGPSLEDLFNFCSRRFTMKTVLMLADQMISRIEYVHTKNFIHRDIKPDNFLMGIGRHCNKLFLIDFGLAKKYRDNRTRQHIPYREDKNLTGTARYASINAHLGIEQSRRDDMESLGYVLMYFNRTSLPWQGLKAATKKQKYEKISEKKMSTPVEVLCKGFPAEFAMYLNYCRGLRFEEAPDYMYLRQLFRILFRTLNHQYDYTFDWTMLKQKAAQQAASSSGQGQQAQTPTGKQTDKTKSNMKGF

Structure (SMILES)	IC50 (human CSNK1A1 [1]) [nM]	IC50 [2, 4]	IC50 (human CSNK1A1 [3]) [nM]	IC50 (human CSNK1D) [nM]	IC50 [2, 5] [nM]
CC(C(=O)Nc1cc(-c2[nH]c3c(c2Nc2ccccc2)C(=O)N(C)CC3)ccn1)c1ccncc1 (racemic) [Example 72, N-[4-(3-anilino-5-methyl-4-oxo-4,5,6,7-tetrahydro-1H-pyrrolo[3,2-c]pyridin-2-yl)pyridin-2-yl]-2-(pyridin-4-yl)propanamide]	66.4	7590 nM	3.97	6.09	–
CC1Cc2[nH]c(-c3ccnc(NC(=O)C(CC(F)F)c4ccc(F)cc4)c3)c(Nc3ccccc3F)c2C(=O)N1C (single isomer, unassigned; (-)) [Example 106, (−)-(2RS)-4,4-difluoro-N-{4-[(6R*)-3-(2-fluoroanilino)-5,6-dimethyl-4-oxo-4,5,6,7-tetrahydro-1H-pyrrolo[3,2-c]pyridin-2-yl]pyridin-2-yl}-2-(4-fluorophenyl)butanamide]	56.2	–	17.8	22.3	> 20000
CN1C(=O)c2c([nH]c(-c3ccnc(NC(=O)Cc4ccc(F)cc4)c3)c2Nc2ccccc2)CC1(C)C [Example 44, N-[4-(3-anilino-5,6,6-trimethyl-4-oxo-4,5,6,7-tetrahydro-1H-pyrrolo[3,2-c]pyridin-2-yl)pyridin-2-yl]-2-(4-fluorophenyl)acetamide]	671	–	4.82	10.7	4140
CN1CCc2[nH]c(-c3ccnc(NC(=O)C(CO)c4ccc(F)cc4)c3)c(Nc3ccccc3)c2C1=O (single isomer, unassigned) [Example 18, N-[4-(3-anilino-5-methyl-4-oxo-4,5,6,7-tetrahydro-1H-pyrrolo[3,2-c]pyridin-2-yl)pyridin-2-yl]-2-(4-fluorophenyl)-3-hydroxypropanamide]	1790	14900 nM	20.4	44.7	–
CC1(C)Cc2[nH]c(-c3ccnc(NC(=O)Cc4ccc(F)cc4)c3)c(Nc3ccccc3F)c2C(=O)N1 [Example 86, N-{4-[3-(2-fluoroanilino)-6,6-dimethyl-4-oxo-4,5,6,7-tetrahydro-1H-pyrrolo[3,2-c]pyridin-2-yl]pyridin-2-yl}-2-(4-fluorophenyl)acetamide]	110	–	4.44	9.48	6470
CN1CCc2[nH]c(-c3ccnc(NC(=O)C(CO)c4ccc(F)cc4)c3)c(Nc3ccccc3)c2C1=O (stereo not shown) [Example 17, N-[4-(3-anilino-5-methyl-4-oxo-4,5,6,7-tetrahydro-1H-pyrrolo[3,2-c]pyridin-2-yl)pyridin-2-yl]-2-(4-fluorophenyl)-3-hydroxypropanamide]	66.5	14500 nM and 14300 nM	10.9	39.3	> 20000
CN1CCc2[nH]c(-c3ccnc(NC(=O)Cc4c(F)cc(F)cc4F)c3)c(Nc3ccccc3)c2C1=O [Example 164, N-[4-(3-anilino-5-methyl-4-oxo-4,5,6,7-tetrahydro-1H-pyrrolo[3,2-c]pyridin-2-yl)pyridin-2-yl]-2-(2,4,6-trifluorophenyl)acetamide]	149	–	3.83	3.08	419
Cc1ccccc1Nc1c(-c2ccnc(NC(=O)C(CC(F)F)c3ccc(F)cc3)c2)[nH]c2c1C(=O)NC1(CCC1)C2 (single isomer, unassigned; enantiomer 1) [Example 144, (−)-4,4-difluoro-2-(4-fluorophenyl)-N-{4-[3′-(2-methylanilino)-4′-oxo-1′,4′,5′,7′-tetrahydrospiro[cyclobutane-1,6′-pyrrolo[3,2-c]pyridin]-2′-yl]pyridin-2-yl}butanamide-(Enantiomer 1)]	5060	> 20000 nM	80.7	82	–
CC1Cc2[nH]c(-c3ccnc(NC(=O)Cc4ccc(F)cc4)c3)c(Nc3ccccc3F)c2C(=O)N1C (single isomer, unassigned; (-)) [Example 102, (−)-N-{4-[3-(2-fluoroanilino)-5,6-dimethyl-4-oxo-4,5,6,7-tetrahydro-1H-pyrrolo[3,2-c]pyridin-2-yl]pyridin-2-yl}-2-(4-fluorophenyl)acetamide]	51	2330 nM	3.6	7.21	–
